In patent US20100125059A1, “1-BIARYLAZETIDINONE DERIVATIVE” (Teijin Pharma Limited, priority 2007, published 2010) one finds inhibition in vivo data, which are given here for nine compounds.

Each structure is given as a SMILES string. Where two headings read alike, the source gives them in different places.

This assay has as its system hamsters fed a high cholesterol diet. Briefly: Measurement of lipid lowering effect in hamsters fed a high cholesterol diet. It is filed as in vivo, Male Golden Syrian hamsters. The settings on record: Mesocricetus auratus, po, 168 h, gavage once daily, 7 days. How it is done:
Male Golden Syrian hamsters are divided into groups each consisting of 6 animals and fed a controlled high cholesterol diet (CE-2 containing 0.5% cholesterol; CLEA Japan, Inc.) for 28 days at most. From the start of feeding of the high cholesterol diet, the test compounds are administered by gavage once daily. For the administration, 0.2 mL of corn oil alone per 100 g (control group) or a solution (or suspension) of the test compound in corn oil at a dose of 0.01 to 10 mg/kg was given. At the same time, a group fed with a normal diet during the same study period is handled as a normal group. 4 hours after the last administration, whole blood is collected from the abdominal aorta under light anesthesia with ether and serum is separated from the blood. Further, livers are harvested, wet liver weights are measured, and part (about 0.5 g) of the harvested livers are extracted and weighed. 2-propanol in an amount 4 times the weight of the extracted livers are added, the resulted mixtures are homogenized, and the centrifuged supernatant are recovered and used as liver-derived samples.
Serum and liver TC concentrations are determined by an enzyme method using L-type Wako CHO•H (Wako Pure Chemical Industries Ltd.) or Cholestest CHO (Daiichi Pure Chemicals Co., Ltd.). Serum TG concentrations are determined by an enzyme method using L-type Wako TG•H (Wako Pure Chemical Industries Ltd.) or Autosera S TG-N (Daiichi Pure Chemicals Co., Ltd.) and a free glycerine elimination method. LDL-C concentrations are determined by a direct method using L-type Wako LDL-C•M (Wako Pure Chemical Industries Ltd.) or Cholestest LDL (Daiichi Pure Chemicals Co., Ltd.). Human serum was commonly used as a sample for the calibration curve for determinations of serum and liver TC concentrations, serum TG concentration, and serum LDL-C concentration. The effect of the test compound is shown by a suppression rate (%) of an increase in serum TC concentration due to feeding of the high cholesterol diet, a serum TG lowering rate (%), a suppression rate (%) of an increase in serum LDL-C concentration due to feeding of the high cholesterol diet, and a suppression rate (%) of an increase in liver TC concentration due to feeding of the high cholesterol diet calculated in accordance with the following equations.
In the Equation 2, A is the control group, B is the test compound group, and C is the normal group.
In the Equation 3, A is the control group, B is the test compound group, and C is the normal group.
In the Equation 4, A is the control group, B is the test compound group, and C is the normal group.
In the Equation 5, A is the control group, and B is the test compound group.
The following results were obtained from the study by this method on the effects of lowering serum TC, LDL-C, and TG, and liver TC in the hamsters fed with a high cholesterol diet which were given the test compounds for 7 days.
The compounds in which pyridyl of compound of example 51 and 55 was exchanged for phenyl, were used as comparative compound 1 and 2, respectively. In the same method as Example 112, the suppression rate (%) of an increase in serum TC concentration of comparative compound 1 and 2 were calculated.

The mark [1] stands for this setting: read-out: serum LDL-C lowering effect (suppression rate of an increase in serum LDL-C concentration).
Where [2] appears, read: read-out: serum TC lowering effect (suppression rate of an increase in serum TC concentration).
The mark [3] stands for this setting: read-out: serum TG lowering effect (serum TG lowering rate).
Setting [4] is: read-out: liver TC lowering effect (suppression rate of an increase in liver TC concentration).

Consider `Cc1cncc(-c2ccc(N3C(=O)[C@H](SC[C@H](O)c4ccc(Cl)cc4)[C@H]3c3ccc(O)cc3O)cc2)c1` [Example 97, (3R,4R)-3-[(2R)-2-(4-chlorophenyl)-2-hydroxyethylthio]-4-(2,4-dihydroxyphenyl)-1-[4-(5-methylpyridin-3-yl)phenyl]azetidin-2-one], for which the inhibition in vivo at 0.1 mg/kg is, setting by setting: under setting [1], at least 50%; under setting [2], at least 50%.

As to `N#Cc1cncc(-c2ccc(N3C(=O)[C@H](SC[C@H](O)c4ccc(F)cc4)[C@H]3c3ccc(O)cc3)cc2)c1` [Example 18, 5-(4-{(3R,4R)-3-[(2R)-2-(4-fluorophenyl)-2-hydroxyethylthio]-4-(4-hydroxyphenyl)-2-oxoazetidinyl}phenyl)pyridine-3-carbonitrile], the inhibition in vivo at 0.01 mg/kg under setting [2] was at least 30%. Moreover, the inhibition in vivo at 0.1 mg/kg is, setting by setting: under setting [1], at least 50%; under setting [3], at least 20%.

In the case of `Cc1cc(Cl)ccc1[C@@H](O)CS[C@H]1C(=O)N(c2ccc(-c3cccnc3)cc2)[C@@H]1c1ccc(O)cc1` [Example 102, (3R,4R)-3-[(2R)-2-(4-chloro-2-methylphenyl)-2-hydroxyethylthio]-4-(4-hydroxyphenyl)-1-[4-(pyridin-3-yl)phenyl]azetidin-2-one], the inhibition in vivo at 0.1 mg/kg under setting [4] was at least 50%, the inhibition in vivo at 0.1 mg/kg under setting [1] is at least 50% and the inhibition in vivo at 0.1 mg/kg under setting [2] is at least 50%.

Turning to `O=C1[C@H](SC[C@H](O)c2ccc(Cl)cc2)[C@@H](c2ccc(O)cc2)N1c1ccc(-c2cncc(F)c2)cc1` [Example 70, (3R,4R)-3-[(2R)-2-(4-chlorophenyl)-2-hydroxyethylthio]-1-[4-(5-fluoropyridin-3-yl)phenyl]-4-(4-hydroxyphenyl)azetidin-2-one], the inhibition in vivo at 0.01 mg/kg under setting [1] is at least 30% and the inhibition in vivo at 0.01 mg/kg under setting [2] is at least 30%. Also, the inhibition in vivo at 0.1 mg/kg under setting [4] was at least 50%.

With `O=C1[C@H](SC[C@H](O)c2ccc(F)cc2)[C@@H](c2ccc(O)cc2O)N1c1ccc(-c2cccnc2)cc1` [Example 2, (3R,4R)-3-[(2R)-2-(4-fluorophenyl)-2-hydroxyethylthio]-4-(2,4-dihydroxyphenyl)-1-[4-(pyridin-3-yl)phenyl]azetidin-2-one], the inhibition in vivo at 0.01 mg/kg under setting [4] was at least 30% and the inhibition in vivo at 0.01 mg/kg under setting [2] was at least 30%.

For the compound `N#Cc1ncc(-c2ccc(N3C(=O)[C@H](SC[C@H](O)c4ccc(F)cc4)[C@H]3c3ccc(O)cc3)cc2)cn1` [Example 103, 5-(4-{(3R,4R)-3-[(2R)-2-(4-fluorophenyl)-2-hydroxyethylthio]-4-(4-hydroxyphenyl)-2-oxoazetidinyl}phenyl)pyrimidine-2-carbonitrile], under setting [3], the inhibition in vivo at 0.1 mg/kg is at least 20%.

In the case of `Cc1ccc(-c2ccc(N3C(=O)[C@H](SC[C@H](O)c4ccc(F)cc4)[C@H]3c3ccc(O)cc3O)cc2)cn1` [Example 95, (3R,4R)-3-[(2R)-2-(4-fluorophenyl)-2-hydroxyethylthio]-4-(2,4-dihydroxyphenyl)-1-[4-(6-methylpyridin-3-yl)phenyl]azetidin-2-one], the inhibition in vivo at 0.01 mg/kg is, setting by setting: under setting [1], at least 30%; under setting [2], at least 30%.

For `O=C1[C@H](SC[C@H](O)c2ccc(F)cc2)[C@@H](c2ccc(O)cc2O)N1c1ccc(-c2cncc(F)c2)cc1` [Example 73, (3R,4R)-3-[(2R)-2-(4-fluorophenyl)-2-hydroxyethylthio]-4-(2,4-dihydroxyphenyl)-1-[4-(5-fluoropyridin-3-yl)phenyl]azetidin-2-one], under setting [2], the inhibition in vivo at 0.01 mg/kg is at least 30% and the inhibition in vivo at 0.1 mg/kg was at least 50%. For the same compound, the inhibition in vivo at 0.1 mg/kg under setting [1] was at least 50%.

On to `CCNC(=O)c1cncc(-c2ccc(N3C(=O)[C@H](SC[C@H](O)c4ccc(F)cc4)[C@H]3c3ccc(O)cc3)cc2)c1` [Example 49, N-ethyl-5-(4-{(3R,4R)-3-[(2R)-2-(4-fluorophenyl)-2-hydroxyethylthio]-4-(4-hydroxyphenyl)-2-oxoazetidinyl}phenyl)pyridine-3-carboxamide], for which the inhibition in vivo at 0.1 mg/kg runs as follows: under setting [1], at least 50%; under setting [2], at least 50%; under setting [3], at least 20%.
